The subject of data set [1] is NPTX1. The data set can be described thus: NPTX1 knock down by lentiviral shRNA in hESCs, message level. In kind it is cell-based, human. To be noted: day 3 of neural differentiation. As for the experimental part:
(§1) Feeder free neural induction was carried out as previously described (Chambers et al., supra). Briefly, hESC cultures (WA-09 cells) were disaggregated using Accutase (Innovative Cell Technologies, Inc., San Diego, Calif.) for 20 minutes, washed using hESC media and pre-plated on gelatin for 1 hour at 37° C. in the presence of ROCK inhibitor (Sigma, Carlsbad, Calif.) to remove MEFs. The nonadherent hESCs were washed and plated at a density of 20,000 cells/cm^2 on BD Matrigel™ matrix (BD Biosciences, San Diego, Calif.) coated dishes in MEF conditioned hESCs media (CM) spiked with 10 ng/mL of FGF-2 and ROCK-inhibitor (Sigma). The ROCK inhibitor was withdrawn, and hESCs were allowed to expand in CM for 3 days or until they were nearly confluent. The initial differentiation media conditions included knock out serum replacement (KSR) media with […] TGF-β inhibitor (SB431542, Tocris) and 500 ng/mL of Noggin (R&D Systems). Upon day 5 of differentiation, increasing amounts of N2 media (Fasano et al., 2010, supra) (25%, 50%, 75%) was added to the KSR media every two days while maintaining 500 ng/mL of Noggin and TGF-β inhibitor.
(§2) Total RNA was extracted using an RNeasy kit (Qiagen). For each sample, 1 μg of total RNA was treated for DNA contamination and reverse transcribed using Quantitect first strand kit (Qiagen). Amplified material was detected using Taqman probes and PCR mix (ABI) on a Mastercycler RealPlex2 (Eppendorf). All results were normalized to a HPRT control and were from 3 technical replicates of 3 independent biological samples at each data point.
NPTX1 open reading frame (ORF) was generated by PCR. This fragment was cloned into the BamH1 and NotI sites of the lentiviral vector, pCDH-EF1-MCS-IRES GFP(SBI Biosciences). […] Viral titers were measured by serial dilution on NIH 3T3 cells (ATCC Deposit No. CRL-1658) followed by flow cytometric analysis after 72 hours. […]

In data set [2] the test system is hESCs (WA-09). Put plainly: Neural induction of hESCs (dual SMAD inhibition protocol), marker expression by qRT-PCR / immunostaining. In kind it is cell-based, human. To be noted: for expression of the neural genes SOX1 and PAX6 (mRNA) compared to control: control empty vector. As for the experimental part:
as §1, §2
Cells were fixed using 4% paraformaldehyde for 15 minutes, washed with PBS, permeabilized using 0.3% Triton X in PBS, and blocked using 10% normal goat serum. Primary antibody used for microscopy was PAX6 (DSHB).
hESCs (WA-09; passages 35) were dissociated and plated on Matrigel with the ROCK inhibitor as single cells. 24 hrs post plating the ESCs were transduced with either control (empty vector), NPTX1 shRNA, or NPTX10RF containing vectors. One (1) week later, GFP-expressing colonies were manually picked and plated on MEFs. Cells were then expanded, tested for mycoplasma.
(§3) Antibodies used for performing immunocytochemistry, methods for which are described in Fasano et al., 2007, and 2010, supra, were obtained commercially as follows: PAX6 (Developmental Studies Hybridoma Bank (Iowa City, Iowa)), SOX2 (Santa Cruz Biotechnology (SCBT) (Santa Cruz, Calif.)), Nestin (Chemicon (Temecula, Calif.)), Nanog (SCBT), OCT-4 (SCBT), SMAD3 and SMAD1 (Cell Signaling Technology, Inc., Danvers, Mass.), FOXG1 (NeuraCell, Rensselaer, N.Y.), SSEA-4, SSEA-3, SSEA-1 (BD Pharmingen (San Diego, Calif.)). Alexa secondary antibodies were purchased from Invitrogen.
In general terms: In qPCR the cycle at which signal appears reflects the starting amount.

Data set [3] relates to hESCs (WA-09). The data set can be described thus: Neurosphere assay on cells isolated at day 7 of differentiation. In kind it is cell-based, human. The source says:
To assess the neural character of the cells generated, the resulting cells were isolated at day 7 of differentiation and subjected to a neurosphere assay. […] In control conditions, the neural genes PAX6 and SOX1 started to appear around day 4 (FIGS. 4B and 4C, respectively).

Data set [4] relates to hESCs. Put plainly: Dual SMAD protocol with substituted factors, PAX6 and SMAD1 at day 7 (BMP signaling). Format: cell-based, human. To be noted: after 7 days of differentiation. As for the experimental part:
as §1, §3
The directed neural differentiation paradigm used in this study employed the use of both a TGF-beta blocker (SB431542) and Noggin, a BMP blocker, as it has been shown that blocking only TGF-beta is not sufficient to drive neural commitment. While CRIPTO works to enhance NODAL signaling, it has been shown that NODAL itself can bind up BMPs and thus lower BMP signaling. Because NPTX1 depletes available CRIPTO in the extracelluar space and cell surface, it seemed plausible that the resulting excess Nodal could dampen BMP signaling. To test whether NPTX1 expression can reduce BMP signaling, the dual SMAD protocol was employed to generate neural cells (addition of Noggin and TGF-beta inhibitor SB431542).
In one condition, Noggin was substituted with a CRIPTO blocking antibody to see if CRIPTO loss could result in robust neural differentiation. As a positive control for BMP signaling, another group was treated with high levels of BMP7. After 7 days of differentiation, neural marker expression and SMAD1 levels were determined.

Data set [5] concerns hESCs. The data set can be described thus: Recombinant CRP added to hESCs in neural differentiation conditions, mRNA at day 7. In kind it is cell-based, human. The conditions noted are these: 2 μg/ml, administered on days 0, 3 and 5; 7 days. As for the experimental part: as §2
C-Reactive Protein (CRP) is a pentraxin protein that is found in the blood, and levels of which rise in response to stress and/or inflammation. […] It was also reported that, when CRP levels went over a particular threshold at 4-weeks of gestation, the time at which nervous system development occurs, an increased rate of miscarriage was identified. In the present Example, it was thus tested whether another member of the pentraxin protein family, in addition to NPTX1 might play an important role in neural differentiation. Recombinant CRP(R&D Systems, 2 μg/ml) or a vehicle control was added to hESCs cultured in conditions that would allow for neural development to proceed normally in the dish. […] Such acceleration of human development could be a cue for miscarriage and/or neural birth defects in fetuses exposed to high levels of CRP during this critical time of gestation.

For data set [6], the target named is T1, CRIPTO (Homo sapiens, UniProt P13385).
T1 construct: endogenous in cells; host or cells: hESCs (WA-09), membrane fraction of lysed cells
T1 sequence (P13385 31-150): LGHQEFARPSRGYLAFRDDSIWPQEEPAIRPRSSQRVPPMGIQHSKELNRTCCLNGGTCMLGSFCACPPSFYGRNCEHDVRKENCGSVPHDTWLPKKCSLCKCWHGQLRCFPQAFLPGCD
Put plainly: Co-immunoprecipitation of CRIPTO with NPTX1-His from membrane fraction of hESCs. In kind it is binding. The conditions noted are these: conditioned media applied to hESCs for 1 hour.

The mark [7] stands for this setting: day 7 of neural differentiation.

With “shRNA2: lentiviral NPTX1 shRNA, ACG TGT AGG TTG AGA ACA A (SEQ ID NO: 43) (ACGTGTAGGTTGAGAACAA)”, the “knock down of NPTX1 at the message level” value in data set [1] is listed as “successfully knocked down NPTX1”. Also, the “SMAD2 and SMAD3 gene expression (RT-PCR)” value in data set [2] (NPTX1 knockdown hESCs) is recorded as “elevated gene expression”. In addition, the “NANOG and OCT4 levels compared to control” value in data set [2] (day 7 of differentiation) was “elevated levels”. Also, in data set [2] (setting [7]), the “CRIPTO expression compared to control-treated cells” value is given as 20 fold; the “expression of the neural genes SOX1 and PAX6 (mRNA) compared to control” value (shortened to “expression … (mRNA) compared to control”) is listed as “significantly reduced levels”. In data set [2] (time course of neural differentiation), the “gene expression of PAX6 and SOX1 along the time course compared to control” value is “much delayed and at much lower levels”. In addition, in data set [3], the “number of neurospheres compared to control” value is listed as “significant reduction”.
“shRNA1: lentiviral NPTX1 shRNA, AGT AAA GAG TGG AGA AAG A (SEQ ID NO: 42); did not knock down, used as negative control (AGTAAAGAGTGGAGAAAGA)”: the “knock down of NPTX1 at the message level” value in data set [1] is on record as “did not knock down NPTX1”. Besides, the “expression … (mRNA) compared to control” value in data set [2] (setting [7]) is on record as “no effect”.
In the case of “shRNA3: lentiviral NPTX1 shRNA, GAG AAA GGT CAG AAA GAC A (SEQ ID NO: 44) (GAGAAAGGTCAGAAAGACA)”, the “knock down of NPTX1 at the message level” value in data set [1] is “successfully knocked down NPTX1”. Besides, the “expression … (mRNA) compared to control” value in data set [2] (setting [7]) was “significantly reduced levels”. In addition, the “expression of early neuroectodermal markers GBX2 and SOX2 (qRT-PCR)” value in data set [2] (days 0-7, days 5 and 7 statistically significant) is “drastic reduction”.
As to `NC(=O)c1ccc(-c2nc(-c3ccc4c(c3)OCO4)c(-c3ccccn3)[nH]2)cc1` [SB431542, reference compound], in data set [4], the PAX6 expression entry is on record as “few PAX6 cells” and the “pSMAD1 / SMAD1 levels” value is listed as “high pSMAD1 levels”.

B1: CRP: recombinant C-reactive protein (R&D Systems), a pentraxin protein (protein, UniProt P02741 19-224, looked up)
C-reactive protein: QTDMSRKAFVFPKESDTSYVSLKAPLTKPLKAFTVCLHFYTELSSTRGYSIFSYATKRQDNEILIFWSKDIGYSFTVGGSEILFEVPEVTVAPVHICTSWESASGIVEFWVDGKPRVRKSLKKGYTVGAEASIILGQEQDSFGGNFEGSQSLVGDIGNVNMWDFVLSPDEINTIYLGGPFSPNVLNWRALKYEVQGEVFTKPQLWP
Consider B1, for which, in data set [5], the NPTX1 expression entry is reported as “increase” and the “neural marker PAX6 compared to the control” value is on record as “striking up-regulation”.

B2: NPTX1-His: NPTX1 protein with six HIS amino acids on the N-terminus, in conditioned media (protein)
chain: HHHHHHQDFGPTRFICTSVPVDADMCAASVAAGGAEELRSSVLQLRETVLQQKETILSQKETIRELTAKLGRCESQSTLDPGAGEARAGGGRKQPGSGKNTMGDLSRTPAAETLSQLGQTLQSLKTRLENLEQYSRLNSSSQTNSLKDLLQSKIDELERQVLSRVNTLEEGKGGPRNDTEERVKIETALTSLHQRISELEKGQKDNRPGDKFQLTFPLRTNYMYAKVKKSLPEMYAFTVCMWLKSSATPGVGTPFSYAVPGQANELVLIEWGNNPMEILINDKVAKLPFVINDGKWHHICVTWTTRDGVWEAYQDGTQGGSGENLAPYHPIKPQGVLVLGQEQDTLGGGFDATQAFVGELAHFNIWDRKLTPGEVYNLATCSTKALSGNVIAWAESHIEIYGGATKWTFEACRQIN
For the molecule B2, the “co-immunoprecipitation with CRIPTO” value in data set [6] is “coimmunoprecipitate”.

B3: BMP7: positive control for BMP signaling, high levels of BMP7 (protein, UniProt P18075 293-431, looked up)
Bone morphogenetic protein 7: STGSKQRSQNRSKTPKNQEALRMANVAENSSSDQRQACKKHELYVSFRDLGWQDWIIAPEGYAAYYCEGECAFPLNSYMNATNHAIVQTLVHFINPETVPKPCCAPTQLNAISVLYFDDSSNVILKKYRNMVVRACGCH
As for B3, in data set [4], the PAX6 expression entry is “few PAX6 cells” and the “pSMAD1 / SMAD1 levels” value was “high pSMAD1 levels”.

The record behind these values is patent US20120101024A1, “Methods and Compositions for Differentiating Embryonic Stem Cells” (REGENERATIVE RESEARCH FOUNDATION, priority 2010, published 2012).
